In patent US20240182531A1, “KV1.3 Blockers” (priority 2021, published 2024):
Where a SMILES comes first, the peptide text is derived from it. Bridges are numbered along the chain shown (N, C = ends). [ ]: non-standard residue; d: D form. Phe(4-NH2) = Nc1ccc(C[C@H](N)C(=O)O)cc1; Nle = CCCC[C@H](N)C(=O)O

Columns and labels:
human Kv1.6 = molecular target: T1, human Kv1.6 (Homo sapiens, UniProt P17658); test: cell-based; settings: ratio of patch clamp IC50 values
T1 construct: expressed in transfected cells; host or cells: CHO

human Kv1.2 = molecular target: T2, human Kv1.2 (Homo sapiens, UniProt P16389); test: cell-based; settings: ratio of patch clamp IC50 values
T2 construct: expressed in transfected cells; host or cells: CHO

human Kv1.1 = molecular target: T3, human Kv1.1 (Homo sapiens, UniProt Q09470); test: cell-based; settings: ratio of patch clamp IC50 values
T3 construct: expressed in transfected cells; host or cells: CHO

Rat whole blood = Rat whole blood (Rattus norvegicus, UniProt P15384); format: cell-based; settings: IL-17A release, thapsigargin, 24 Hr, at least 2 replicates
Rat whole blood, sequence (P15384 whole entry): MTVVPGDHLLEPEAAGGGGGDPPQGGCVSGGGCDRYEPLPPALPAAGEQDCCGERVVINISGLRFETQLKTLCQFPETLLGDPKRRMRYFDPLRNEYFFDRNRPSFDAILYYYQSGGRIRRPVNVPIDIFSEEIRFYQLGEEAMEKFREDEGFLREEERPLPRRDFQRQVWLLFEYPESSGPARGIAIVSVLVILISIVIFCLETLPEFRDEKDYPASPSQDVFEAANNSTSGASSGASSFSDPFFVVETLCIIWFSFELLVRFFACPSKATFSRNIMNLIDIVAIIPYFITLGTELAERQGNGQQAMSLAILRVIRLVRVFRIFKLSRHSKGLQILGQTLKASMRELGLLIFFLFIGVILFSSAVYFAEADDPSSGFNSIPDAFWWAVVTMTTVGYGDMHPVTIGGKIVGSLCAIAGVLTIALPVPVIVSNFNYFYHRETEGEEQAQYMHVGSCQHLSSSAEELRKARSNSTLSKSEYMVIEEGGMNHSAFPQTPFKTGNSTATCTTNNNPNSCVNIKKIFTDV

T1 sequence (P17658 whole entry): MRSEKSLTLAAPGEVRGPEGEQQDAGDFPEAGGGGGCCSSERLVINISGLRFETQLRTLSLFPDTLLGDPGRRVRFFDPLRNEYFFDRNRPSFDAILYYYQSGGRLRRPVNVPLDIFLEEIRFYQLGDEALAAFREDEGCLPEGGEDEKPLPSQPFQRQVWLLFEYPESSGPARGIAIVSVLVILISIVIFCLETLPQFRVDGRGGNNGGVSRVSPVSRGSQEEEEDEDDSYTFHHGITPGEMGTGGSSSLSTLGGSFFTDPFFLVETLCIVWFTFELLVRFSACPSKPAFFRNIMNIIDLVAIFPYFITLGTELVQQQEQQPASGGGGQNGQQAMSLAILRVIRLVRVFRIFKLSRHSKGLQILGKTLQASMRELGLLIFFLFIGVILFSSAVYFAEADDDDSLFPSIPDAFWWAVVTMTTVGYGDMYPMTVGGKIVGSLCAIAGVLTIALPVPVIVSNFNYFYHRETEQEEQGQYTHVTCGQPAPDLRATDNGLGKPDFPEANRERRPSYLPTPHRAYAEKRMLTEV
T2 sequence (P16389 whole entry): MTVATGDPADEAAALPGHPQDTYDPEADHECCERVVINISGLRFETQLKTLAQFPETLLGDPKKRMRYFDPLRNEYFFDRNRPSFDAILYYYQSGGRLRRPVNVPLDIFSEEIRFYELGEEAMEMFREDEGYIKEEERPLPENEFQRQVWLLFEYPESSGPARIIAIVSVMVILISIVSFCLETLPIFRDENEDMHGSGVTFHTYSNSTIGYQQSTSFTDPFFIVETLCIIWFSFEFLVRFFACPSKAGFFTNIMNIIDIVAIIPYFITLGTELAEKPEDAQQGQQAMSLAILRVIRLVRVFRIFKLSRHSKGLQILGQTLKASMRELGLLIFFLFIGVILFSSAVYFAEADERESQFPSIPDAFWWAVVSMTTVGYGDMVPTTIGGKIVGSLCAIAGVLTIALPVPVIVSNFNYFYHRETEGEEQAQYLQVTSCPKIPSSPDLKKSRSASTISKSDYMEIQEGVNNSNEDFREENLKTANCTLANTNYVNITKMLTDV
T3 sequence (Q09470 whole entry): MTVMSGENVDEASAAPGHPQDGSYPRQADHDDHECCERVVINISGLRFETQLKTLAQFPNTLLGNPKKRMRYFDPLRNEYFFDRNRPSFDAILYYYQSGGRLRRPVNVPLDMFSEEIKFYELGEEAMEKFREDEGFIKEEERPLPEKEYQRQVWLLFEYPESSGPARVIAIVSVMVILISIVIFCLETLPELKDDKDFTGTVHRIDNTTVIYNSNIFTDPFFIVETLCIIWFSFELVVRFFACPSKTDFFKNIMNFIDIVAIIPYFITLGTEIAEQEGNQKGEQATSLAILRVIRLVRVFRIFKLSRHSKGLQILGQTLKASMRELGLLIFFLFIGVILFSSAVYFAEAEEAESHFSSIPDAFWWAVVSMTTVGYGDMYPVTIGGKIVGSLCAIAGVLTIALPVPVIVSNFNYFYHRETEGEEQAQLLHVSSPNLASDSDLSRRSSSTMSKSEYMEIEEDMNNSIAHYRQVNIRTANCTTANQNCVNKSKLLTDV

Row | SMILES | Selectivity ratio Kv1.6/Kv1.3 (human Kv1.6) | Selectivity ratio Kv1.2/Kv1.3 (human Kv1.2) | Selectivity ratio Kv1.1/Kv1.3 (human Kv1.1) | IC50 (Rat whole blood) [nM]
1 | CCCC[C@@H]1NC(=O)[C@@H]2CSSC[C@H](NC(=O)[C@H](CCCNC(=N)N)NC(=O)[C@H](CCCC)NC(=O)[C@H](CO)NC(=O)[C@H](CCCC)NC(=O)[C@@H](N)CC(N)=O)C(=O)N[C@@H](CO)C(=O)N[C@@H](C)C(=O)N[C@@H](CO)C(=O)N[C@@H](C(C)C)C(=O)N[C@@H](CCC(=O)O)C(=O)N[C@H]3CSSC[C@H](NC(=O)[C@H](CCCCN)NC(=O)[C@H](CCCCN)NC(=O)[C@H](CC(N)=O)NC1=O)C(=O)N[C@@H](CCCCN)C(=O)N[C@H](C(=O)N[C@@H](Cc1ccc(O)cc1)C(=O)N1CCC[C@H]1C(=O)N[C@@H](CCCNC(=N)N)C(N)=O)CSSC[C@H](NC(=O)[C@H](CCCCN)NC(=O)[C@H](CCC(N)=O)NC(=O)[C@H](CCCCN)NC3=O)C(=O)N[C@@H](CC(C)C)C(=O)N[C@@H](CCCCN)C(=O)N[C@@H](C)C(=O)N[C@@H]([C@@H](C)CC)C(=O)NCC(=O)N[C@@H](CO)C(=O)N[C@@H]([C@@H](C)CC)C(=O)N[C@@H](Cc1ccccc1)C(=O)NCC(=O)N[C@@H](CCCCN)C(=O)N2 [compound 50] (H-N[Nle]S[Nle]RCSASVECKQKCLKAIGSIFGKC[Nle]NKKCKCYPR-NH2; disulfide 6-27, 12-32, 16-34) | 4359 | 943 | >9400 | 0.79
2 | CC[C@H](C)[C@@H]1NC(=O)[C@H](C)NC(=O)[C@H](CCCCN)NC(=O)[C@H](CCCCN)NC(=O)[C@@H]2CSSC[C@@H](C(=O)N[C@@H](Cc3ccc(O)cc3)C(=O)N3CCC[C@H]3C(=O)N[C@@H](CCCNC(=N)N)C(N)=O)NC(=O)[C@H](CCCCN)NC(=O)[C@@H]3CSSC[C@H](NC(=O)[C@H](CCC(=O)O)NC(=O)[C@H](C(C)C)NC(=O)[C@H](CO)NC(=O)[C@H](C)NC(=O)[C@H](CO)NC(=O)[C@@H](NC(=O)[C@H](CCCNC(=N)N)NC(=O)[C@H](CCSC)NC(=O)[C@H](CC(=O)O)NC(=O)[C@H](CCSC)NC(=O)[C@@H](N)CC(N)=O)CSSC[C@H](NC(=O)[C@H](CCCCN)NC(=O)CNC(=O)[C@H](Cc4ccccc4)NC(=O)[C@H]([C@@H](C)CC)NC(=O)[C@H](CO)NC(=O)CNC1=O)C(=O)N[C@@H](CCSC)C(=O)N[C@@H](CC(N)=O)C(=O)N[C@@H](CCCCN)C(=O)N[C@@H](CCCCN)C(=O)N3)C(=O)N[C@@H](CCCCN)C(=O)N[C@@H](CCC(N)=O)C(=O)N[C@@H](CCCCN)C(=O)N2 [compound 24] (H-NMDMRCSASVECKQKCKKAIGSIFGKCMNKKCKCYPR-NH2; disulfide 6-27, 12-32, 16-34) | 1955 | 202 | >13500 | 0.56
3 | CCCC[C@H](NC(=O)[C@H](CC(=O)O)NC(=O)[C@H](CCCC)NC(=O)[C@@H](N)CO)C(=O)N[C@@H](CCCNC(=N)N)C(=O)N[C@H]1CSSC[C@@H]2NC(=O)[C@H](CCCCN)NC(=O)CNC(=O)[C@H](Cc3ccccc3)NC(=O)[C@H]([C@@H](C)CC)NC(=O)[C@H](CO)NC(=O)CNC(=O)[C@H]([C@@H](C)CC)NC(=O)[C@H](C)NC(=O)[C@H](CCCCN)NC(=O)[C@H](CC(C)C)NC(=O)[C@@H]3CSSC[C@@H](C(=O)N[C@@H](Cc4ccc(N)cc4)C(=O)N4CCC[C@H]4C(=O)N[C@@H](CCCNC(=N)N)C(N)=O)NC(=O)[C@H](CCCCN)NC(=O)[C@H](CSSC[C@H](NC(=O)[C@H](CCC(=O)O)NC(=O)[C@H](C(C)C)NC(=O)[C@H](CO)NC(=O)[C@H](C)NC(=O)[C@H](CO)NC1=O)C(=O)N[C@@H](CCCCN)C(=O)N[C@@H](CCC(N)=O)C(=O)N[C@@H](CCCCN)C(=O)N3)NC(=O)[C@H](CCCCN)NC(=O)[C@H](CCCCN)NC(=O)[C@H](CC(N)=O)NC(=O)[C@H](CCSC)NC2=O [compound 70] (H-S[Nle]D[Nle]RCSASVECKQKCLKAIGSIFGKCMNKKCKC[Phe(4-NH2)]PR-NH2; disulfide 6-27, 12-32, 16-34) | >12200 | 1720 | >12200 | 0.79
4 | CCCC[C@@H]1NC(=O)[C@@H]2CSSC[C@H](NC(=O)[C@H](CCCNC(=N)N)NC(=O)[C@H](CC(C)C)NC(C)=O)C(=O)N[C@@H](CO)C(=O)N[C@@H](C)C(=O)N[C@@H](CO)C(=O)N[C@@H](C(C)C)C(=O)N[C@@H](CCC(=O)O)C(=O)N[C@H]3CSSC[C@H](NC(=O)[C@H](CCCCN)NC(=O)[C@H](CCCCN)NC(=O)[C@H](CC(N)=O)NC1=O)C(=O)N[C@@H](CCCCN)C(=O)N[C@H](C(=O)N[C@@H](Cc1ccc(O)cc1)C(=O)N1CCC[C@H]1C(=O)N[C@@H](CCCNC(=N)N)C(N)=O)CSSC[C@H](NC(=O)[C@H](CCCCN)NC(=O)[C@H](CCC(N)=O)NC(=O)[C@H](CCCCN)NC3=O)C(=O)N[C@@H](CC(C)C)C(=O)N[C@@H](CCCCN)C(=O)N[C@@H](C)C(=O)N[C@@H]([C@@H](C)CC)C(=O)NCC(=O)N[C@@H](CO)C(=O)N[C@@H]([C@@H](C)CC)C(=O)N[C@@H](Cc1ccccc1)C(=O)NCC(=O)N[C@@H](CCCCN)C(=O)N2 [compound 102] (Ac-LRCSASVECKQKCLKAIGSIFGKC[Nle]NKKCKCYPR-NH2; disulfide 3-24, 9-29, 13-31) | 7096 | 352 | >8700 | 0.37
5 | CC[C@H](C)[C@@H]1NC(=O)[C@H](C)NC(=O)[C@H](CCCCN)NC(=O)[C@H](CC(C)C)NC(=O)[C@@H]2CSSC[C@@H](C(=O)N[C@@H](Cc3ccc(O)cc3)C(=O)N3CCC[C@H]3C(=O)N[C@@H](CCCNC(=N)N)C(N)=O)NC(=O)[C@H](CCCCN)NC(=O)[C@@H]3CSSC[C@H](NC(=O)[C@H](CCC(=O)O)NC(=O)[C@H](C(C)C)NC(=O)[C@H](CO)NC(=O)[C@H](C)NC(=O)[C@H](CO)NC(=O)[C@@H](NC(=O)[C@H](CCCNC(=N)N)NC(=O)[C@H](CCSC)NC(=O)[C@H](CC(=O)O)NC(=O)[C@H](CCSC)NC(=O)[C@@H](N)CC(N)=O)CSSC[C@H](NC(=O)[C@H](CCCCN)NC(=O)CNC(=O)[C@H](Cc4ccccc4)NC(=O)[C@H](CCCCN)NC(=O)[C@H](CO)NC(=O)CNC1=O)C(=O)N[C@@H](CCSC)C(=O)N[C@@H](CC(N)=O)C(=O)N[C@@H](CCCCN)C(=O)N[C@@H](CCCCN)C(=O)N3)C(=O)N[C@@H](CCCCN)C(=O)N[C@@H](CCC(N)=O)C(=O)N[C@@H](CCCCN)C(=O)N2 [compound 38] (H-NMDMRCSASVECKQKCLKAIGSKFGKCMNKKCKCYPR-NH2; disulfide 6-27, 12-32, 16-34) | 490 | 237 | >7100 | 2.1
6 | CC[C@H](C)[C@@H]1NC(=O)[C@H](C)NC(=O)[C@H](CCCCN)NC(=O)[C@H](CC(C)C)NC(=O)[C@@H]2CSSC[C@@H](C(=O)N[C@@H](Cc3ccc(O)cc3)C(=O)N3CCC[C@H]3C(=O)N[C@@H](CCCNC(=N)N)C(N)=O)NC(=O)[C@H](CCCCN)NC(=O)[C@@H]3CSSC[C@H](NC(=O)[C@H](CCC(=O)O)NC(=O)[C@H](C(C)C)NC(=O)[C@H](CO)NC(=O)[C@H](C)NC(=O)[C@H](CO)NC(=O)[C@@H](NC(=O)[C@H](CCCNC(=N)N)NC(=O)[C@H](CCSC)NC(=O)[C@H](CC(=O)O)NC(=O)[C@H](CCSC)NC(=O)[C@@H](N)CC(N)=O)CSSC[C@H](NC(=O)[C@H](CCCCN)NC(=O)CNC(=O)[C@H](Cc4ccccc4)NC(=O)[C@H]([C@@H](C)CC)NC(=O)[C@H](CO)NC(=O)CNC1=O)C(=O)N[C@@H](CCSC)C(=O)N[C@@H](CC(N)=O)C(=O)N[C@@H](CCCCN)C(=O)N[C@@H](CCCCN)C(=O)N3)C(=O)N[C@@H](C)C(=O)N[C@@H](CCC(N)=O)C(=O)N[C@@H](CCCCN)C(=O)N2 [compound 34] (H-NMDMRCSASVECAQKCLKAIGSIFGKCMNKKCKCYPR-NH2; disulfide 6-27, 12-32, 16-34) | >22000 | 4897 | >22000 | 0.41
7 | CC[C@H](C)[C@@H]1NC(=O)[C@H](C)NC(=O)[C@H](CCCCN)NC(=O)[C@H](CC(C)C)NC(=O)[C@@H]2CSSC[C@@H](C(=O)N[C@@H](Cc3ccc(O)cc3)C(=O)N3CCC[C@H]3C(=O)N[C@@H](CCCNC(=N)N)C(N)=O)NC(=O)[C@H](CCCCN)NC(=O)[C@@H]3CSSC[C@H](NC(=O)[C@H](CCC(=O)O)NC(=O)[C@H](C(C)C)NC(=O)[C@H](CO)NC(=O)[C@H](C)NC(=O)[C@H](CO)NC(=O)[C@@H](NC(=O)[C@H](CCCNC(=N)N)NC(=O)[C@H](CCSC)NC(=O)[C@H](CC(=O)O)NC(=O)[C@H](CCSC)NC(=O)[C@@H](N)CC(N)=O)CSSC[C@H](NC(=O)[C@H](CCCCN)NC(=O)CNC(=O)[C@H](Cc4ccccc4)NC(=O)[C@H]([C@@H](C)CC)NC(=O)[C@H](CO)NC(=O)CNC1=O)C(=O)N[C@@H](CCSC)C(=O)N[C@@H](CC(N)=O)C(=O)N[C@@H](CCCCN)C(=O)N[C@@H](CCCCN)C(=O)N3)C(=O)N[C@@H](CCCCN)C(=O)N[C@@H](CCC(N)=O)C(=O)N[C@@H](CC(C)C)C(=O)N2 [compound 23] (H-NMDMRCSASVECKQLCLKAIGSIFGKCMNKKCKCYPR-NH2; disulfide 6-27, 12-32, 16-34) | >12700 | 1080 | >12700 | 3.2
